# Data taken from patent US8273890B2 (4SC AG, priority 2007, dated 2012).
# Biological target: T1, recombinant Plk1 protein (Homo sapiens, UniProt P53350)
# T1 construct: histidine tag (N); made in house; host or cells: SF9 insect cells
# Test: Plk1 kinase activity inhibition assay (33P-ATP, alpha casein substrate, flash plates)
# Format: biochemical
# Settings: enzymatic assay, 100 nM Li-ATP, 80 minutes at 30° C.
# Procedure: The inhibition of Plk1 kinase activity can be measured using recombinant Plk1 protein expressed as an N-terminally histidine-tagged protein in SF9 insect cells and alpha casein as substrate. The Plk1 assay is run in 96 well plates by incubating 50 to 100 ng per well recombinant Plk1, 500 ng per well alpha casein (Sigma, # C-6780) as substrate, 10 μl of compound of invention (test compounds were dissolved as 20 mM solutions in dimethylsulfoxide (DMSO) and subsequently diluted), and 100 nM Li-ATP (including ^33P-ATP) in 100 μl of reaction buffer ([…] HEPES, pH 7.5; 3 mM MgCl2; 3 mM MnCl2; 3 μM Na-Orthovanadat; 1 mM DTT; 1 μg/ml PEG 8000) for 80 minutes at 30° C. The reactions are terminated by adding 100 μl stopping buffer (2% H3PO4 for 5 minutes) and are washed 3 times with washing solution (0.9% NaCl). Determining ^33P incorporated into the protein substrate alpha casein, the detection is based on the adhesion of the phosphorylated protein to the surface of scintillator-coated flash plates (Perkin Elmer, USA; #SMP-200). Phosphorylation of alpha casein is measured by counting the radioactivity bound to the plate for 60 sec. using a plate reader (Perkin Elmer, USA; Wallac Microbeta). By this method, the IC50 value of the Plk1 inhibition is determined as described above.
# T1 sequence (P53350 whole entry): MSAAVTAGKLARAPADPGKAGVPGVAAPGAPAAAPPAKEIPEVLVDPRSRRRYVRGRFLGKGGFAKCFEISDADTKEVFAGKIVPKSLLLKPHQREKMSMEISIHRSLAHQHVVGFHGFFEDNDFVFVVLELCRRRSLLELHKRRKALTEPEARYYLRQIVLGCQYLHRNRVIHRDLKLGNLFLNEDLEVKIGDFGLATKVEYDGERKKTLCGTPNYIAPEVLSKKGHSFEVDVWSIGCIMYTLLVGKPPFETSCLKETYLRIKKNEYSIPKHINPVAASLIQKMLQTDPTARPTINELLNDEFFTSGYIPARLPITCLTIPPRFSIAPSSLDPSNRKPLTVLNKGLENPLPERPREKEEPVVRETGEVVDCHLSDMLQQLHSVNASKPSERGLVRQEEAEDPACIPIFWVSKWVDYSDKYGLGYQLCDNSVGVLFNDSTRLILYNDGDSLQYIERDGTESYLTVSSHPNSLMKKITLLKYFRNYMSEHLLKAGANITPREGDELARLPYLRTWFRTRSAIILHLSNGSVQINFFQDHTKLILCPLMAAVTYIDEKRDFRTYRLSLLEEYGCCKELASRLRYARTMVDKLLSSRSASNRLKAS
row,IC50 [nM],SMILES
1,10 to 100,"C[C@@H](Oc1cc(-n2cnc3cc(CO)ncc32)sc1C(N)=O)c1ccccc1C(F)(F)F [Example 47, 5-[6-(hydroxymethyl)-3H-imidazo[4,5-c]pyridin-3-yl]-3-{(1R)-1-[2-(trifluoromethyl)phenyl]ethoxy}thiophene-2-carboxamide]"
2,10 to 100,"C[C@@H](Oc1cc(-n2cnc3cc(CN)ncc32)sc1C(N)=O)c1ccccc1C(F)(F)F [Example 50, 5-[6-(aminomethyl)-3H-imidazo[4,5-c]pyridin-3-yl]-3-{(1R)-1-[2-(trifluoromethyl)phenyl]ethoxy}thiophene-2-carboxamide]"
3,10 to 100,"CCC(Oc1cc(-n2cnc3cnc(CN4CCN(CCOC)CC4)cc32)sc1C(N)=O)c1ccccc1Cl (stereo not shown) [Example 139, 3-{[1-(2-chlorophenyl)propyl]oxy}-5-(6-{[4-(2-methoxyethyl)piperazin-1-yl]methyl}-1H-imidazo[4,5-c]pyridin-1-yl)thiophene-2-carboxamide]"
4,< 10,"C[C@@H](Oc1cc(-n2cnc3cnc(CN4CCN(C)C(=O)C4)cc32)sc1C(N)=O)c1ccccc1C(F)(F)F [Example 72, 5-{6-[(4-methyl-3-oxopiperazin-1-yl)methyl]-1H-imidazo[4,5-c]pyridin-1-yl}-3-{(1R)-1-[2-(trifluoromethyl)phenyl]ethoxy}thiophene-2-carboxamide]"
5,10 to 100,"C[C@@H](Oc1cc(-n2cnc3cnc(CNC(C)(C)C)cc32)sc1C(N)=O)c1ccccc1C(F)(F)F [Example 114, 5-{6-[(tert-butylamino)methyl]-1H-imidazo[4,5-c]pyridin-1-yl}-3-{(1R)-1-[2-(trifluoromethyl)phenyl]ethoxy}thiophene-2-carboxamide]"
6,10 to 100,"NC(=O)c1sc(-n2cnc3cnccc32)cc1OCc1ccccc1F [Example 40, 3-[(2-fluorobenzyl)oxy]-5-(1H-imidazo[4,5-c]pyridin-1-yl)thiophene-2-carboxamide]"
7,10 to 100,"C[C@@H](Oc1cc(-n2cnc3cnc(CN4CCOCC4)cc32)sc1C(N)=O)c1ccccc1C(F)(F)F [Example 62, 5-[6-(morpholin-4-ylmethyl)-1H-imidazo[4,5-c]pyridin-1-yl]-3-{(1R)-1-[2-(trifluoromethyl)phenyl]ethoxy}thiophene-2-carboxamide]"
8,< 10,"C[C@@H](Oc1cc(-n2cnc3cnc(CN4CCC(N(C)C)C4)cc32)sc1C(N)=O)c1ccccc1C(F)(F)F (stereo partly drawn) [Example 144, 5-(6-{[3-(dimethylamino)pyrrolidin-1-yl]methyl}-1H-imidazo[4,5-c]pyridin-1-yl)-3-{(1R)-1-[2-(trifluoromethyl)phenyl]ethoxy}thiophene-2-carboxamide]"
9,10 to 100,"CC1CN(Cc2cc3c(cn2)ncn3-c2cc(O[C@H](C)c3ccccc3C(F)(F)F)c(C(N)=O)s2)C(C)CN1 (stereo partly drawn) [Example 83, 5-{6-[(2,5-dimethylpiperazin-1-yl)methyl]-1H-imidazo[4,5-c]pyridin-1-yl}-3-{(1R)-1-[2-(trifluoromethyl)phenyl]ethoxy}thiophene-2-carboxamide]"
10,10 to 100,"NC(=O)c1sc(-n2cnc3ccncc32)cc1OCc1ccc(F)cc1C(F)(F)F [Example 41, 3-{[4-fluoro-2-(trifluoromethyl)benzyl]oxy}-5-(3H-imidazo[4,5-c]pyridin-3-yl)thiophene-2-carboxamide]"
11,100 to 1000,"COc1cc2c(ncn2-c2cc(OCc3ccccc3C(F)(F)F)c(C(N)=O)s2)nc1OC [Example 21A, 5-(5,6-Dimethoxy-1H-imidazo[4,5-b]pyridin-1-yl)-3-{[2-(trifluoromethyl)benzyl]oxy}thiophene-2-carboxamide]"
12,1000 to 10000,"CC(Oc1cc(-n2cnc3cc(CN4CCOCC4)ncc32)sc1C(N)=O)c1ccccc1F (stereo not shown) [Example 158, 3-[-1-(2-fluorophenyl)ethoxy]-5-[6-(morpholin-4-ylmethyl)-3H-imidazo[4,5-c]pyridin-3-yl]thiophene-2-carboxamide]"
13,1000 to 10000,"CN(CCN1CCOCC1)C(=O)c1cc2c(cn1)ncn2-c1cc(OCc2ccccc2C(F)(F)F)c(C(N)=O)s1 [Example 11, 1-(5-Carbamoyl-4-{[2-(trifluoromethyl)benzyl]oxy}-2-thienyl)-N-methyl-N-(2-morpholin-4-ylethyl)-1H-imidazo[4,5-c]pyridine-6-carboxamide]"
14,< 10,"CC(Oc1cc(-n2cnc3cnc(CN4CCN(C)CC4)cc32)sc1C(N)=O)c1ccc(F)cc1C(F)(F)F (stereo not shown) [Example 97, 3-{1-[4-fluoro-2-(trifluoromethyl)phenyl]ethoxy}-5-{6-[(4-methylpiperazin-1-yl)methyl]-1H-imidazo[4,5-c]pyridin-1-yl}thiophene-2-carboxamide]"
15,< 10,"C=CCN1CCN(Cc2cc3c(cn2)ncn3-c2cc(O[C@H](C)c3ccccc3C(F)(F)F)c(C(N)=O)s2)CC1 [Example 122, 5-{6-[(4-allylpiperazin-1-yl)methyl]-1H-imidazo[4,5-c]pyridin-1-yl}-3-{(1R)-1-[2-(trifluoromethyl)phenyl]ethoxy}thiophene-2-carboxamide]"
16,< 10,"CC(C)CN1CCN(Cc2cc3c(cn2)ncn3-c2cc(O[C@H](C)c3ccccc3C(F)(F)F)c(C(N)=O)s2)CC1 [Example 120, 5-{6-[(4-isobutylpiperazin-1-yl)methyl]-1H-imidazo[4,5-c]pyridin-1-yl}-3-{(1R)-1-[2-(trifluoromethyl)phenyl]ethoxy}thiophene-2-carboxamide]"
17,< 10,"CCc1ccccc1COc1cc(-n2cnc3cnc(CN4CCN(C)CC4)cc32)sc1C(N)=O [Example 153, 3-[(2-ethylbenzyl)oxy]-5-{6-[(4-methylpiperazin-1-yl)methyl]-1H-imidazo[4,5-c]pyridin-1-yl}thiophene-2-carboxamide]"
18,< 10,"COc1ccc2ncn(-c3cc(OCc4ccccc4C(F)(F)F)c(C(N)=O)s3)c2n1 [Example 22, 5-(5-methoxy-3H-imidazo[4,5-b]pyridin-3-yl)-3-{[2-(trifluoromethyl)benzyl]oxy}thiophene-2-carboxamide]"
19,< 10,"CN1CCN(Cc2cc3c(cn2)ncn3-c2cc(OCc3ccccc3C(F)(F)F)c(C(N)=O)s2)CC1 [Example 8, 5-{6-[(4-Methylpiperazin-1-yl)methyl]1H-imidazo[4,5-c]pyridin-1-yl}-3-{[2-(trifluoromethyl)benzyl]oxy}thiophene-2-carboxamide]"
20,< 10,"CC(Oc1cc(-n2cnc3cnc(CN4CCN(C)CC4)cc32)sc1C(N)=O)c1ccccc1OC(F)F (stereo not shown) [Example 99, 3-{1-[2-(difluoromethoxy)phenyl]ethoxy}-5-{6-[(4-methylpiperazin-1-yl)methyl]-1H-imidazo[4,5-c]pyridin-1-yl}thiophene-2-carboxamide]"
21,10 to 100,"CCC(Oc1cc(-n2cnc3cnc(CN4CCN(C5CC5)CC4)cc32)sc1C(N)=O)c1ccccc1Cl (stereo not shown) [Example 140, 3-{[1-(2-chlorophenyl)propyl]oxy}-5-{6-[(4-cyclopropylpiperazin-1-yl)methyl]-1H-imidazo[4,5-c]pyridin-1-yl}thiophene-2-carboxamide]"
22,10 to 100,CCCNCc1cc2c(cn1)ncn2-c1cc(O[C@H](C)c2ccccc2C(F)(F)F)c(C(N)=O)s1 [Example 113]
23,10 to 100,"C[C@@H](Oc1cc(-n2cnc3cnc(CN4CCS(=O)(=O)CC4)cc32)sc1C(N)=O)c1ccccc1C(F)(F)F [Example 63, 5-{6-[(1,1-dioxidothiomorpholin-4-yl)methyl]-1H-imidazo[4,5-c]pyridin-1-yl}-3-{(1R)-1-[2-(trifluoromethyl)phenyl]ethoxy}thiophene-2-carboxamide]"
24,100 to 1000,"NC(=O)c1sc(-n2cnc3ccncc32)cc1OCc1cccc(C(F)(F)F)c1 [Example 30, 5-(3H-imidazo[4,5-c]pyridin-3-yl)-3-{[3-(trifluoromethyl)benzyl]oxy}thiophene-2-carboxamide]"
25,< 10,"C[C@@H](Oc1cc(-n2cnc3cnc(CN4CCN(CCO)CC4)cc32)sc1C(N)=O)c1ccccc1C(F)(F)F [Example 61, 5-(6-{[4-(2-hydroxyethyl)piperazin-1-yl]methyl}-1H-imidazo[4,5-c]pyridin-1-yl)-3-{(1R)-1-[2-(trifluoromethyl)phenyl]ethoxy}thiophene-2-carboxamide]"
26,10 to 100,"C[C@@H](Oc1cc(-n2cnc3cnc(CN4CCN(c5ccncc5)CC4)cc32)sc1C(N)=O)c1ccccc1Cl [Example 131, 3-[(1R)-1-(2-chlorophenyl)ethoxy]-5-{6-[(4-pyridin-4-ylpiperazin-1-yl)methyl]-1H-imidazo[4,5-c]pyridin-1-yl}thiophene-2-carboxamide]"
27,100 to 1000,"COCCNC(=O)c1cc2c(cn1)ncn2-c1cc(OCc2ccccc2C(F)(F)F)c(C(N)=O)s1 [Example 4, 1-(5-Carbamoyl-4-{[2-(trifluoromethyl)benzyl]oxy}-2-thienyl)-N-(2-methoxyethyl)-1H-imidazo[4,5-c]pyridine-6-carboxamide]"
28,10 to 100,"NC(=O)c1sc(-n2cnc3cnccc32)cc1OCc1cccc(C(F)(F)F)c1 [Example 35, 5-(1H-imidazo[4,5-c]pyridin-1-yl)-3-{[3-(trifluoromethyl)benzyl]oxy}thiophene-2-carboxamide]"
